Measured values taken from patent publication US11008314B2, “Compounds and methods for modulating interleukin-2-inducible t-cell kinase” (CORVUS PHARMACEUTICALS, INC., priority 2016, dated 2021).

Columns and labels:
Assay type in all cases: biochemical
ITK = ITK (Homo sapiens (Human), UniProt Q08881); test: IC50 against ITK
TXK = TXK (Homo sapiens (Human), UniProt P42681); test: IC50 against TXK; details: for TXK/ITK: ratio of TXK IC50 to ITK IC50
JAK3 = JAK3 (Homo sapiens (Human), UniProt P52333); test: IC50 against JAK3
Chain of JAK3 (P52333 whole entry, species assumed): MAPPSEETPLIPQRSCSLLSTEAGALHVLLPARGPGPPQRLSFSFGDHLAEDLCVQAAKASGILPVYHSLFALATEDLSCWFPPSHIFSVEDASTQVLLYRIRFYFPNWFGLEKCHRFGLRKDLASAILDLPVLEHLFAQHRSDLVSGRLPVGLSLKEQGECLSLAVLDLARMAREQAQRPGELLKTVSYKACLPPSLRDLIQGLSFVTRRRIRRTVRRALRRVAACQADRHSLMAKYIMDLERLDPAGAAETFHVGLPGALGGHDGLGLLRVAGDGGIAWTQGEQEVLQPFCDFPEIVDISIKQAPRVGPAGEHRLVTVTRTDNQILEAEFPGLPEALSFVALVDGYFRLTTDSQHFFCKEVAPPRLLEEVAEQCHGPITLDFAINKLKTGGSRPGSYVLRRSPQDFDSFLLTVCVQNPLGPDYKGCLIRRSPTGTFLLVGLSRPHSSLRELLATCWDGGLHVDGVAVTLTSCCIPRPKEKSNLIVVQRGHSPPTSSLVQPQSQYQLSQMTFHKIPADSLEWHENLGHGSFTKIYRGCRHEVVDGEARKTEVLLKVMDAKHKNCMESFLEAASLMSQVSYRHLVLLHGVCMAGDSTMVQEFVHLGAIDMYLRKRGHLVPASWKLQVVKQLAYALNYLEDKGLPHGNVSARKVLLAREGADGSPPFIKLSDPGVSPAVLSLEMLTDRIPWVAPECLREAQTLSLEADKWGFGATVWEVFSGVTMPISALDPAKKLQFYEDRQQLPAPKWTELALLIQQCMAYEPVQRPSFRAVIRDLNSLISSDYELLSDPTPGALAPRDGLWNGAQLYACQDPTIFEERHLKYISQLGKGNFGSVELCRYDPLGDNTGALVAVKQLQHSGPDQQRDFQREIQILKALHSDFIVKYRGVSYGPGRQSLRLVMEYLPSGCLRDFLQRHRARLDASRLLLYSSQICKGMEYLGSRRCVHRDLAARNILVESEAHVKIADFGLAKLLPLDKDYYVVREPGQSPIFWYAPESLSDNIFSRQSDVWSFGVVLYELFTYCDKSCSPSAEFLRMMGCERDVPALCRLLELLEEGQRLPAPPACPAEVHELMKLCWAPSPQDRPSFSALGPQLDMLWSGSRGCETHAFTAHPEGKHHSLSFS

BTK = BTK (Homo sapiens (Human), UniProt Q06187); test: IC50 against BTK
Chain of BTK (Q06187 whole entry, species assumed): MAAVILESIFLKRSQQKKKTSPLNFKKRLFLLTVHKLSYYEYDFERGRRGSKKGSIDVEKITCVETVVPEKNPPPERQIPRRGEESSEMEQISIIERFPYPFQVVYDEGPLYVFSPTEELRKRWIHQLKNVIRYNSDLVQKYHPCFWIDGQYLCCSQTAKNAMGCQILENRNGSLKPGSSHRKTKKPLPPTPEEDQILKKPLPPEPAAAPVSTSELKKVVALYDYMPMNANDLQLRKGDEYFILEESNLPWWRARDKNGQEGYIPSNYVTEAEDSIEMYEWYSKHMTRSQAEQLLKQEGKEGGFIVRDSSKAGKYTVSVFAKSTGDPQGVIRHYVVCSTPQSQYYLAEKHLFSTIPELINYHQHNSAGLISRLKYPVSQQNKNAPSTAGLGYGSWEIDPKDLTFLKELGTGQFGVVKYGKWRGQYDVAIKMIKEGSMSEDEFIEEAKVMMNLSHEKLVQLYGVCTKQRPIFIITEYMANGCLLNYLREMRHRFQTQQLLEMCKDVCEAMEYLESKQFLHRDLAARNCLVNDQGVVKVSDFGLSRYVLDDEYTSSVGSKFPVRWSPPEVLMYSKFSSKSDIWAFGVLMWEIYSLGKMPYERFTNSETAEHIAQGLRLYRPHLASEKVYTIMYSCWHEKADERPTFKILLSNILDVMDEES

Chain of ITK (Q08881 whole entry): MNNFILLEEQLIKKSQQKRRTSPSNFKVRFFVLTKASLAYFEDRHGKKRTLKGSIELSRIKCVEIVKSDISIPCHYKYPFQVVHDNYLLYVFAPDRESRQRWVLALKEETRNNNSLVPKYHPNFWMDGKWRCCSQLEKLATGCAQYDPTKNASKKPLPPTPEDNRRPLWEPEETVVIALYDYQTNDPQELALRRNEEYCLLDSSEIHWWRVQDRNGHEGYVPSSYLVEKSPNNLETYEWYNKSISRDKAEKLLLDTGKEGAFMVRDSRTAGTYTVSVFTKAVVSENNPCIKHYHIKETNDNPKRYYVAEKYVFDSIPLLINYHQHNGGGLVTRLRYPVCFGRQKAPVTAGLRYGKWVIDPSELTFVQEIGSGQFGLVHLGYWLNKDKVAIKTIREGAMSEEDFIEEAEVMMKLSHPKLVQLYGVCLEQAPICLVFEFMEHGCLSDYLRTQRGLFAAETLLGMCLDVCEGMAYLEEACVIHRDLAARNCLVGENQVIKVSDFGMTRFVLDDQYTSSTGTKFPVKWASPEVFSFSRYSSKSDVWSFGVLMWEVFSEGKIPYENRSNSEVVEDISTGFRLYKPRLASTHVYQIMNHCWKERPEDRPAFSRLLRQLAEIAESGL
Chain of TXK (P42681 whole entry, species assumed): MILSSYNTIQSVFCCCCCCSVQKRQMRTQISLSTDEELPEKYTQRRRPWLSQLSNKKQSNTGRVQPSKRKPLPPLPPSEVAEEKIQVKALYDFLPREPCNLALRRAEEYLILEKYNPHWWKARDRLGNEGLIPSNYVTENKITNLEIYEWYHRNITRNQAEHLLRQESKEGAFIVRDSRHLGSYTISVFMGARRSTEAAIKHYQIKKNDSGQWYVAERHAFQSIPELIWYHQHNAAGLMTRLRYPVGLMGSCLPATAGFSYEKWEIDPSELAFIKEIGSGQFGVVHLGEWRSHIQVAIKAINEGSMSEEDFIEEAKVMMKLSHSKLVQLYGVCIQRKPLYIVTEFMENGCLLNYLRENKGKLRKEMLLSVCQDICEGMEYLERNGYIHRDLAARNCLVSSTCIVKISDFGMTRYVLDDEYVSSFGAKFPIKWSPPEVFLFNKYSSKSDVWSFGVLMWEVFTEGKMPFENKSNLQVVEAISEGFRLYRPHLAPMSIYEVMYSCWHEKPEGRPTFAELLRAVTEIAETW

| Structure (SMILES) | IC50 (ITK) | IC50 (TXK) | TXK/ITK (TXK) | IC50 (JAK3) | IC50 (BTK) |
| --- | --- | --- | --- | --- | --- |
| C=CC(=O)N1CCCN(C(=O)c2cc(Cc3cnc(NC(=O)C4CC4)s3)c(C)cc2C)C[C@H]1C [Compound 127] | 10 to 100 nM | 100 to 1000 nM | 7.6 | ≥ 10000 nM | 100 to 1000 nM |
| C=CC(=O)N1CCCN(C(=O)c2cc(Cc3cnc(NC(=O)C4CC4)s3)c(C)cc2OC)C[C@H]1C [Compound 128] | 10 to 100 nM | 100 to 1000 nM | 12.8 | ≥ 10000 nM | 100 to 1000 nM |
| C=CC(=O)N1CCN(C(=O)c2cc(Sc3cnc(NC(=O)c4cccc(CN(C)C)c4)s3)c(C)cc2C)C[C@H]1CC [Compound 129] | < 10 nM | 10 to 100 nM | 46.0 | 100 to 1000 nM | 10 to 100 nM |
| C=CC(=O)N1CCN(C(=O)c2cc(Sc3cnc(NC(=O)c4ccsc4)s3)c(C)cc2C)C[C@H]1CC [Compound 130] | < 10 nM | 10 to 100 nM | 7.0 | 100 to 1000 nM | 100 to 1000 nM |
| C=CC(=O)N1CCN(C(=O)c2cc(Sc3cnc(NC(=O)c4cnsc4)s3)c(C)cc2C)C[C@H]1CC [Compound 131] | < 10 nM | 10 to 100 nM | 11.0 | 100 to 1000 nM | 100 to 1000 nM |
| C=CC(=O)N1CCN(C(=O)c2cc(Sc3cnc(NC(=O)c4ccn(C)c4)s3)c(C)cc2OC)C[C@H]1CC [Compound 132] | < 10 nM | 10 to 100 nM | – | 100 to 1000 nM | 100 to 1000 nM |
| C=CC(=O)N1CCN(C(=O)c2cc(Sc3cnc(Nc4ccccn4)s3)c(C)cc2C)CC1 [Compound 133] | < 10 nM | < 10 nM | 4.6 | 10 to 100 nM | 10 to 100 nM |
| C=CC(=O)N1CCN(C(=O)c2cc(Sc3cnc(Nc4ccc(CN(C)C)cn4)s3)c(C)cc2OC)CC1 [Compound 134] | < 10 nM | < 10 nM | – | 10 to 100 nM | < 10 nM |
| C=CC(=O)N1CCCN(C(=O)c2cc(Sc3cnc(Nc4ncccc4C)s3)c(C)cc2OC)C[C@H]1C [Compound 136] | < 10 nM | 10 to 100 nM | 42 | 100 to 1000 nM | 10 to 100 nM |
| C=CC(=O)N1CCN(C(=O)c2cc(C(C)c3cnc(Nc4ccccn4)s3)c(C)cc2OC)CC1 (stereo not drawn) [Compound 137] | < 10 nM | < 10 nM | 0.93 | 100 to 1000 nM | < 10 nM |
| C=CC(=O)N1CCN(C(=O)c2cc(Sc3cnc(Nc4ncc(C)cc4C)s3)c(C)cc2C)CC1 [Compound 138] | 10 to 100 nM | 10 to 100 nM | 3.29 | 100 to 1000 nM | 100 to 1000 nM |
| C=CC(=O)N1CCN(C(=O)c2cc(Sc3cnc(Nc4ncc(C)nc4C)s3)c(C)cc2C)CC1 [Compound 139] | 10 to 100 nM | 10 to 100 nM | 4.65 | 100 to 1000 nM | 100 to 1000 nM |
| C=CC(=O)N1CCN(C(=O)c2cc(C(C)c3cnc(NC(=O)C4CC4)s3)c(C)cc2OC)CC1 (stereo not drawn) [Compound 140] | < 10 nM | 10 to 100 nM | 2.66 | 1000 to 10000 nM | 10 to 100 nM |
| C=CC(=O)N1CCN(C(=O)c2cc(Sc3cnc(NC(=O)c4ccsc4)s3)c(C)cc2OC)CC1(C)C [Compound 141, N-(5-((5-(4-acryloyl-3,3-dimethylpiperazine-1-carbonyl)-4-methoxy-2-methylphenyl)thio)thiazol-2-yl)thiophene-3-carboxamide] | < 10 nM | 10 to 100 nM | 14.70 | 100 to 1000 nM | 10 to 100 nM |
| C=CC(=O)N1CCN(C(=O)c2cc(Sc3cnc(NC(=O)c4ccsc4)s3)c(C)cc2OC)C(C)(C)C1 [Compound 142, N-(5-((5-(4-acryloyl-2,2-dimethylpiperazine-1-carbonyl)-4-methoxy-2-methylphenyl)thio)thiazol-2-yl)thiophene-3-carboxamide] | < 10 nM | < 10 nM | 1.00 | < 10 nM | < 10 nM |
| C=CC(=O)N1C[C@H]2CC[C@@H](C1)N2C(=O)c1cc(Sc2cnc(NC(=O)c3ccsc3)s2)c(C)cc1OC [Compound 143, N-(5-((5-((1R,5S)-3-acryloyl-3,8-diazabicyclo[3.2.1]octane-8-carbonyl)-4-methoxy-2-methylphenyl)thio)thiazol-2-yl)thiophene-3-carboxamide] | < 10 nM | < 10 nM | 3.51 | 10 to 100 nM | < 10 nM |
| C=CC(=O)N1CCN(C(=O)c2cc(Sc3cnc(NC(=O)c4ccsc4)s3)c(C)cc2OC)[C@@H](C)C1 [Compound 144, (S)-N-(5-((5-(4-acryloyl-2-methylpiperazine-1-carbonyl)-4-methoxy-2-methylphenyl)thio)thiazol-2-yl)thiophene-3-carboxamide] | < 10 nM | 10 to 100 nM | 18.84 | 100 to 1000 nM | 10 to 100 nM |
| C=CC(=O)N1CCC2(C1)CN(C(=O)c1cc(Sc3cnc(NC(=O)c4ccsc4)s3)c(C)cc1OC)C2 [Compound 145, N-(5-((5-(6-acryloyl-2,6-diazaspiro[3.4]octane-2-carbonyl)-4-methoxy-2-methylphenyl)thio)thiazol-2-yl)thiophene-3-carboxamide] | < 10 nM | < 10 nM | 3.86 | 10 to 100 nM | < 10 nM |
| C=CC(=O)N1CC[C@@H](N(C)C(=O)c2cc(Sc3cnc(NC(=O)c4ccsc4)s3)c(C)cc2OC)C1 [Compound 146, (R)-N-(5-((5-((1-acryloylpyrrolidin-3-yl)(methyl)carbamoyl)-4-methoxy-2-methylphenyl)thio)thiazol-2-yl)thiophene-3-carboxamide] | < 10 nM | < 10 nM | 3.19 | < 10 nM | < 10 nM |
| C=CC(=O)N1CCCN(C(=O)c2cc(Sc3cnc(Nc4ccccn4)s3)c(C)cc2OC)C[C@H]1C(C)C [Compound 147, (R)-l-(2-isopropyl-4-(2-methoxy-4-methyl-5-((2-(pyridin-2-ylamino)thiazol-5-yl)thio)benzoyl)-1,4-diazepan-1-yl)prop-2-en-1-one] | < 10 nM | 100 to 1000 nM | 29.58 | 1000 to 10000 nM | 10 to 100 nM |
| C=CC(=O)N1CCCN(C(=O)c2cc(Sc3cnc(NC(=O)C4CC4)s3)c(C)cc2OC)C[C@H]1C(C)C [Compound 148, (R)-N-(5-((5-(4-acryloyl-3-isopropyl-1,4-diazepane-1-carbonyl)-4-methoxy-2-methylphenyl)thio)thiazol-2-yl)cyclopropanecarboxamide] | < 10 nM | 100 to 1000 nM | 82.31 | ≥ 10000 nM | 100 to 1000 nM |
| C=CC(=O)N1CCCN(C(=O)c2cc(Sc3cnc(NC(=O)c4ccsc4)s3)c(C)cc2OC)C[C@H]1C(C)C [Compound 149, (R)-N-(5-((5-(4-acryloyl-3-isopropyl-1,4-diazepane-l-carbonyl)-4-methoxy-2-methylphenyl)thio)thiazol-2-yl)thiophene-3-carboxamide] | < 10 nM | 100 to 1000 nM | 171.45 | ≥ 10000 nM | 10 to 100 nM |
